Results on one substance are retold here after patent publication US20100158973A1 (HADASIT MEDICAL RESEARCH SERVICES & DEVELOPMENT LlIMITED, priority 2006, published 2010).

The test system of assay [1] is SD/Hsd male rats, surgically induced infarct. Put plainly: Infarct (scar) size after LAD ligation, Evans blue/TTC staining and planimetry. It counts as in vivo.
Assay [2] relates to ApoE−/− mice. Description: Plasma triglyceride levels in ApoE−/− mice on high-fat diet. The settings on record: 20 IP injections of 5 mg/kg, 12 h fasting.
Method: (§1) Twelve- to fourteen-week-old male and female ApoE ApoE^−/− mice on a C57B1/6 background were fed a high-fat diet (Takland adjusted calories, Western-type diet: 2.1% fat, 15% cholesterol, 19.5% casein) for 12 weeks.
Blood samples were collected in capillary tubes following twelve hours of fasting, and immediately centrifuged for plasma removal.
(§2) Control mice were injected with Cremophor:ethanol:saline 1:1:18. Plasma triglyceride levels were assayed following twelve hours fasting using an enzymatic reagent (Sigma™).
Assay [3] concerns SD/Hsd male rats, surgically induced infarct. Put plainly: Echocardiography before and 7 days after LAD ligation. As to conditions: for LVEDD (left ventricular end-diastolic diameter) / LVESD (left ventricular end-systolic diameter) / SF (shortening fraction): CBD group.
Method: In the following experiment 14 SD/Hsd male rats weighing 275-350 g were used.
Rats were anesthetized with ketamine (10%): xylazine (2%), 0.85:0.15 IM 0.1 ml/kg. Animals were intubated and ventilated with a small animal respirator (Harvard Sc.). The heart was exposed via left sternotomy and the LAD was reversibly occluded for 30 minutes using a snare fashioned from an encircling silk ligature and a section of 5 French feeding tube. Coronary occlusion and reperfusion were verified by visual inspection. Following reperfusion the released ligature was left in situ. The chest was then closed in layers using uninterrupted sutures. Rats were extubated, received 30-50 cc saline subcutaneously to replace lost body fluids, and were treated with Rymadil (5 mg/kg, i.p.) analgesia for 3 days. […] The drug and the vehicle solutions were prepared in separate laboratories, ensuring that the staff (e.g. echocardiography and pathology) was blinded to the treatment arm. After 7 days, animals were re-anesthetized and ventilated as described above. The LAD was permanently re-occluded, and the heart harvested for further analysis.
Rats were anesthetized with Ketamine (10%):Xylasine (2%), 0.85:0.15 IM 0.1 ml/kg and the chest cavity was shaved. Echo was carried out prior to surgery and 1 week after, prior to sacrifice of the animals.
Echo imaging was performed using a GE Vivid3 platform, equipped with a 13 MHz linear epiaortic transducer (General Electric, Haifa, Israel). The probe was positioned in a left parasternal position, and 2D imaging of the heart in the short axis was performed using a high frame rate. This image was used to guide an M-mode cursor down the medial axis of the left ventricle. Measurements were performed in triplicates using the leading edge convention for myocardial borders.
The following parameters were measured: Left ventricular end-diastolic diameter (LVEDD) Left ventricular end-systolic diameter (LVESD); anterior wall thickness in diastole and systole (AWTd, AWTs); and Heart rate (HR).
Shortening fraction (SF) was calculated using the above variables.
The subject of assay [4] is ApoE−/− mice. Put plainly: Size of atherosclerotic plaques in the aorta of ApoE−/− mice.
Method: ApoE knock-out (ApoE^−/−) mice are known to spontaneously develop atherosclerosis, which may be enhanced by a high-fat diet. Twelve- to fourteen-week-old male and female ApoE ApoE^−/− mice on a C57B1/6 background were fed a high-fat diet (Takland adjusted calories, Western-type diet: 2.1% fat, 15% cholesterol, 19.5% casein) for 12 weeks.
Blood samples were collected in capillary tubes following twelve hours of fasting, and immediately centrifuged for plasma removal. Plasma samples were assayed for total cholesterol using conventional colorimetric assays. Mice were then sacrificed, and their aorta were extracted and examined for the presence and size of atherosclerotic lesions (plaques).
as §2
For assay [5], the system named is ApoE−/− mice. Description: LDL cholesterol levels in ApoE−/− mice (Friedewald formula). The settings on record: high-fat diet, 20 IP injections of 5 mg/kg.
Method: as §1
Blood samples were collected in capillary tubes following twelve hours of fasting, and immediately centrifuged for plasma removal. Plasma samples were assayed for total cholesterol using conventional colorimetric assays.
as §2
LDLc=TC−triglycerides levels/5-HDLc
Statistical analysis was by ANOVA test (ANalysis Of VAriance between groups).
The subject of assay [6] is SD/Hsd male rats, surgically induced infarct. Put plainly: Histopathology of infarcted hearts (hematoxylin and eosin, Masson trichrome). The class given is in vivo.
Setting [7] is: Day 7 after LAD ligation, 5 mg/kg IP daily.

Where “and” joins values, the source holds several entries; their conditions need not be identical. Identical values can stand only once. Entries after “also recorded” stand apart in the source; their conditions may differ.

In the case of Cannabidiol [CBD], the “% infarct size” value in assay [1] (individual animals of CBD-treated group) is 16.3% and 15.3% and 14.6% and 13.9% and 6.5% and 7.5% and 7.6% (2×) and 8.1% and 7.8%. In addition, the “mean infarct size as percent of area at risk” value in assay [1] (rats, 5 mg/kg IP 1 h before surgery and daily, 7 days, control 28.2±7.0%) came to 9.6±3.9%. For the same substance, in assay [2], the “lowering of plasma triglyceride levels compared with control-treated mice” value came to 59%. In assay [3] (Day 0 (baseline)), the “LVEDD (left ventricular end-diastolic diameter)” value was 0.70 ± 0.06 mm, the “LVESD (left ventricular end-systolic diameter)” value came out at 0.36 ± 0.08 mm and the “SF (shortening fraction)” value was 48.27±8.6%. In assay [3] (setting [7]), the “LVEDD (left ventricular end-diastolic diameter)” value is given as 0.72 ± 0.05 mm and the “LVESD (left ventricular end-systolic diameter)” value is 0.43 ± 0.07 mm. Moreover, the “SF (shortening fraction)” value in assay [3] (Day 7 after LAD ligation, 5 mg/kg IP daily, 5 mg/kg) is recorded as 39.7±8.22%. Besides, in assay [3] (FIG. 4D, CBD-treated animal), the “LV function in M mode echocardiography” value is on record as “preserved LV function”. For the same substance, the “atherosclerotic plaques, average % of the aorta area” value in assay [4] (first experiment, 12 CBD-treated mice, control 5.5%) is on record as 3.18%. Besides, the “plaque area, % of the total aorta area” value in assay [4] (second experiment, control 10.6%) is recorded as 5.09%. The “lowering of LDL levels vs control” value in assay [5] was 17%. For the same substance, the LDL cholesterol level in assay [5] (calculated by Friedewald formula) is 1300 mg/dL. In addition, in assay [6] (FIG. 4B, animal treated with CBD), the “inflammation in heart histology” value is given as “almost total lack of inflammation”. Further, in assay [6] (Masson trichrome staining), the “granulation tissue formation with early collagen deposition vs control” value is given as “similar; also recorded: did not affect”. Further, the “inflammatory infiltrate grade (leukocytes infiltrating the border of the infarcted zone)” value in assay [6] (graded by pathologist, control animals 2-3) was 1+ or nullnil (0).
